According to patent US8143254B2, “Methods for modulating ion channels” (Cornell Research Foundation, Inc., priority 2005, dated 2012):

How the values were obtained:
Kv3.4 = target: T1, Kv3.4 (UniProt Q63734); assay: TEVC of X. laevis oocytes expressing Kv3.4; format: cell-based; conditions: 1 mM, bath applied
T1 construct: IC50; other: Kv3.4, logistic dose response fit; effect on Kv3.4 currents; other: 1 mM, bath applied; slope of dose response curve; other: Kv3.4
T1 sequence (Q63734 1-625): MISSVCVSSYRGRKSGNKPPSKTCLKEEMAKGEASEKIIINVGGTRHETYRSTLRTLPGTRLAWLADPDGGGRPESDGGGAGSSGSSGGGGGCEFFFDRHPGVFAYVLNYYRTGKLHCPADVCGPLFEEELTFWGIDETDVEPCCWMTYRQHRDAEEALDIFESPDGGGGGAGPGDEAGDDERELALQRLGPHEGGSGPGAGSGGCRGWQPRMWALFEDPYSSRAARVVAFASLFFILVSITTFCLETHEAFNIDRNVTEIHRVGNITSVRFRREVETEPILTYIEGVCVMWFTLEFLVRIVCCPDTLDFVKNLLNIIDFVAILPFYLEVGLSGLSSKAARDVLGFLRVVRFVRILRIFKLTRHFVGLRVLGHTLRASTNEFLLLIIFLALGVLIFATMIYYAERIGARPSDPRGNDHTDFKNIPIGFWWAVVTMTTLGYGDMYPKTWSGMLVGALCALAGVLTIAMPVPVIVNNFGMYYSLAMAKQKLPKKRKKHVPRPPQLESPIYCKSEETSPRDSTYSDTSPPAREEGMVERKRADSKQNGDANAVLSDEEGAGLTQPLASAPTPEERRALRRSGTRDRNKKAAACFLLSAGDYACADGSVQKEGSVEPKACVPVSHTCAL
Description: Kv2.1 mutants were constructed using the QuickChange Multi Site-Directed Mutagenesis Kit (Stratagene, La Jolla, Calif.). […] For oocyte expression, Kv3.4 was in pBF1, Kv4.2 was in pRAT. cRNA transcripts were produced from SacII-linearized (Kv2.1), Mlullinearized (Kv3.4) and Not1-linearized (Kv4.2) DNA templates using the T3 (Kv2.1), SP6 (Kv3.4) and T7 (Kv4.2) mMessage mMachine kits (Ambion, Austin, Tex.). cRNA was quantified by spectrophotometry and its size integrity verified by gel electophoresis. Defolliculated stage V and VI Xenopus laevis oocytes (purchased from Nasco, Grand Island, N.Y.) were injected with 5 ng of cRNA encoding Kv2.1, Kv3.4 or Kv4.2. Chinese Hamster Ovary (CHO) cells were transfected with 0.25 μg Kv2.1 cDNA, 2 μg blank plasmid and 2 μg Green fluorescent Protein in pBOB using Supetfect transfection reagent (Qiagen) 24 hours before whole-cell voltage clamp studies.
Oocytes were bathed in a small-volume Warner oocyte bath and viewed with a Fisher dissection microscope. Bath solution for whole-cell oocyte recordings was (in mM): 96 NaCl, 4 KCl, 0.7 MgCl2, 1 CaCl2, 10 HEPES (pH 7.4); whole-cell oocyte TEVC pipettes were of 0.2-2 M resistance when filled with 3 M KCl. Experiments were performed 24-48 hours after cRNA injection. For assessment of current-voltage relationships in the absence or presence of dabco derivatives, oocytes were held at −80 mV, stepped for 2 seconds at voltages between −80 mV and +60 mV in 20 mV steps (Kv2.1) or between −80 and +50 mV in 10 mV steps (Kv3.4), then held for 500 ms at −40 mV before returning to the holding potential. For assessment of block during wash-in of dabco derivatives at a single voltage, oocytes were held at −80 mV, and repetitively stepped to 0 mV for 2 s with an interpulse interval of 10 s or 60 s as indicated. A range of concentrations of dabco or dabco derivatives were washed in via the bath solution during repetitive single-voltage pulses (after an initial period of 5 pulses with control solution to ensure current stabilization) until equilibrium block was achieved, to establish dose-responses. […] Washout was performed after the highest concentration of blocker was washed in. In cases where washout was achieved, only those recordings in which current returned to within 10% of original current level were used for construction of dose-response curves. […] As controls for this protection analysis, JC638.2a or MTSET were washed in alone until equilibrium block, then washed out.
Data analysis: Current-voltage relationships were obtained by measuring peak current during depolarizing pulses. Inhibition constants for DABCO blockers were calculated after generating a dose response curve by fitting with a logistic dose-response function y=A2+[A1−A2/1+(x/x0)^p], where A1 is the maximum response plateau, A2 is the minimum response plateau, x is drug concentrator, x0 is the IC50, and p the Hill slope. Data analysis was performed using […] 9 (Axon Instruments, Foster City, Calif.) and tabulated in Excel 5.0. Graphs were generated using Origin 6.1. Data are expressed as mean±SEM, with n specifying the number of independent experiments. Statistical significance was assessed by one-way ANOVA with p<0.05 being indicative of significance.

Kv2.1 = target: T2, Kv2.1 (Rattus norvegicus, UniProt P15387); assay: Two-electrode voltage clamp (TEVC) of Xenopus oocytes expressing Kv2.1, bath-applied compound; format: cell-based; conditions: for effect on Kv2.1 currents: 1 mM, bath applied
T2 construct: expressed in transfected cells; host or cells: Xenopus laevis oocytes (cRNA injection, pGA1 vector)
Description: The ion channel subunit genes are in expression vectors that facilitate in vitro transcription of channel cRNA using the Ambion mMessage mMachine in vitro transcription kit. cDNA constructs are column-purified, linearized with the appropriate restriction enzyme that cuts a single site following the polyA tail, then purified by precipitation and transcribed in vitro using a promoter, such as T7, T3 and SP6. Transcribed cRNA is purified by precipitation and resuspended in RNAse-free water ready for injection. Each transcription can provide enough cRNA for several months of experiments.
Stage V-VI Xenopus oocytes are separated into small groups using forceps, defolliculated by agitation in Ca^2+-free Ringer solution containing collagenase for one hour, washed, then stored at 15° C. in full Ringers solution before injection. cRNA sufficient to give 1-10 μA of current at physiological voltages for each channel type is injected into Xenopus oocytes (selected by appearance for overall health and uniformity of color) using a Sutter manual injector (typically 0.1-5 ng cRNA in a volume of 25-50 nl). The oocytes are then stored for 1-3 days at 15° C. before TEVC recording. Beta subunit cRNA is co-injected as appropriate, typically 2 ng per oocyte.
Whole cell oocyte experiments are performed using a Warner OC-725C amplifier and pClamp9 software with oocytes bathed in a small-volume Warner oocyte bath and viewed with a Fisher dissection microscope. Bath solution for whole cell oocyte recordings, e.g., for potassium channel analysis, is generally (in mM): 96 NaCl, 4 KCl, 1 MgCl2, 0.3 CaCl2, 10 HEPES (Ph 7.4); whole-cell oocyte TEVC pipettes are filled with 3 M KCl. Oocyte patches are studies using an Axon Instruments small-volume bath, viewed with an Olympus IX50 inverted microscope, and recordings made using an Axon Multiclamp 700 A Amplifier and pCLAMP9 software (Axon Instruments). Extracellular solution, e.g., for potassium channel analysis, is generally (in mM): 135 NaCl, 5 KCl, 1.2 MgCl2, 5 HEPES, 2.5 CaCl2, 10 D-glucose (Ph 7.4). Intracellular solution, e.g., for potassium channel analysis, is generally (in mM): 10 NaCl, 117 KCl, 2 MgCl2, 11 HEPES, 11 EGTA, ICaCl2 (Ph 7.2). Patch pipettes are approximately 3-5 MΩ resistance when filled with recording solution.
Quantitative aspects of ion action on ion channels are compared using standard pulse protocols. Pulse times and voltages will vary according to which currents are being studied. […] Drug inhibition constants are calculated after generating a dose response curve by fitting with a logistic dose-response function (see equation (i) below). Typically, 5-20 cells per group are recorded from for heterologous expression experiments. Values are to be stated as mean±SEM with statistical significance set at p<0.05 (unpaired students t-test, ANOVA or the Mann-Whitney Rank Sum Test as appropriate).
Injected oocytes, bathed in bath solution containing 4 mM KCl, unless otherwise stated, are impaled with current and voltage electrodes and clamped at −80 mV holding potential using a Warner OC-725C amplifier. […] Drug concentrations are chosen to ensure inhibition values between 0 and 90-100% with at least 3 values within the linear portion of the curve so that the inhibition constant (Ki) can be calculated accurately by fitting with a logistic dose-response function (formula (i)) using the Origin 6.1 graph package.
Kv2.1 mutants were constructed using the QuickChange Multi Site-Directed Mutagenesis Kit (Stratagene, La Jolla, Calif.). […] For oocyte expression, Kv3.4 was in pBF1, Kv4.2 was in pRAT. cRNA transcripts were produced from SacII-linearized (Kv2.1), Mlullinearized (Kv3.4) and Not1-linearized (Kv4.2) DNA templates using the T3 (Kv2.1), SP6 (Kv3.4) and T7 (Kv4.2) mMessage mMachine kits (Ambion, Austin, Tex.). cRNA was quantified by spectrophotometry and its size integrity verified by gel electophoresis.

T2 sequence (P15387 whole entry): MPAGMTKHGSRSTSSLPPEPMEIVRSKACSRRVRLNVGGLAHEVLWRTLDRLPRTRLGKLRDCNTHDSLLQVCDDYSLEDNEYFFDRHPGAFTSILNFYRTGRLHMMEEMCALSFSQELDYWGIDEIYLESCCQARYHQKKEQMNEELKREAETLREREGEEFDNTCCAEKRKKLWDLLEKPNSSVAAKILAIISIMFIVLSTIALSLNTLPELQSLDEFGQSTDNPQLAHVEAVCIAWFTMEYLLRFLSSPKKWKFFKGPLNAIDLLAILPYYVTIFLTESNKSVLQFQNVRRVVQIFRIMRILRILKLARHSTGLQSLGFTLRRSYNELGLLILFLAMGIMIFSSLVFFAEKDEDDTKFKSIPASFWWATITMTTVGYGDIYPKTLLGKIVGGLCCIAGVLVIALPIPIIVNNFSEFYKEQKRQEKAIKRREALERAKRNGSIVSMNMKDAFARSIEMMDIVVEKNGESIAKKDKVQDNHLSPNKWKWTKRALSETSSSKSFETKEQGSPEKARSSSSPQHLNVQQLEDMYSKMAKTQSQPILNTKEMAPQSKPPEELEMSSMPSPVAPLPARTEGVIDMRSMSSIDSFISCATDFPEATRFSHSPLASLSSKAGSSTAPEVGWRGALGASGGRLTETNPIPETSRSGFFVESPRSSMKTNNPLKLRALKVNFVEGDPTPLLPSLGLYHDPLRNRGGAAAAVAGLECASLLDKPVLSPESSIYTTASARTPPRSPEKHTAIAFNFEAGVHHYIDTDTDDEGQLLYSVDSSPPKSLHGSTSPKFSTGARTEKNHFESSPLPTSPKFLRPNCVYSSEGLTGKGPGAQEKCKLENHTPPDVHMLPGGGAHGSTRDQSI

SMILES	effect on Kv3.4 currents (Kv3.4)	effect on Kv2.1 currents (Kv2.1)	effect on Kv2.1 current during wash-in (Kv2.1; 250 μM TG28, 0 mV)	Kv2.1 current level after washout relative to pre-drug current (Kv2.1; 250 μM TG28 washed out, on average)
C1CN2CCN1CC2 [DABCO, 1,4-diazabicyclo[2.2.2]octane, reference compound]	no effects	no effects	–	–
C(CCCCCC[N+]12CCN(CC1)CC2)CCCCC[N+]12CCN(CC1)CC2 [TG28, 1,12-[bis(4-aza-1-azoniabicyclo[2.2.2]octanyl)]dodecane]	–	block	rapid reduction of current (block) followed by slow, partial restoration of current (partial opening)	two-fold larger than the pre-drug current
